Literature values as cited in US9902985B2 (priority 2012, dated 2018).
Like-named read-outs stand apart in the source and are kept apart here.

Tests used:
Gram-positive organisms = conditions: fold more potent than vancomycin

Compound: C=C(C/C=C(\C)CCC=C(C)C)CCC(C)(C)/C=C/CC/C(C)=C/CO[C@@H](COP(=O)(O)O[C@H]1O[C@H](C(N)=O)[C@@](C)(O)[C@H](OC(N)=O)[C@H]1O[C@@H]1O[C@H](CO[C@@H]2O[C@H](CO)[C@@H](O)[C@H](O)[C@H]2O)[C@@H](O[C@@H]2O[C@H](C)[C@@H](O[C@@H]3O[C@H](C(=O)NC4=C(O)CCC4=O)[C@H](O)[C@H](O)[C@H]3O)[C@H](O)[C@H]2NC(C)=O)[C@H](O)[C@H]1NC(C)=O)C(=O)O [Moenomycin A]
- potency relative to vancomycin (Gram-positive organisms): a thousand times more potent
- potency relative to vancomycin (Gram-positive organisms; listed as moenomycin): 10-1000 times
- absorption upon oral administration: relatively poor
